Experimental data taken from patent US7488754B2, “Method for the treatment of polycystic kidney disease” (Wyeth, priority 2002, dated 2009).
Marks after values point to notes of the source that are not given here.

Assays:
[1] = system: cystic bpk mice; experiment: Treatment of cystic bpk mice (bpk model of ARPKD); type: in vivo; details: B 50 mg/kg/day once daily IP day 7 to 21
[2] = system: cystic bpk mice; experiment: Treatment of cystic bpk mice (bpk model of ARPKD); type: in vivo
Text: This model arose from a spontaneous mutation in a colony of BALB/C mice. Affected animals have many similarities to the human disease including collecting tubule (CT) cysts and biliary ectasia and fibrosis. The kidney disease has a consistent and severe phenotype. Mice homozygous for the bpk mutation have microscopic evidence of cyst formation at birth. Proximal tubule (PT) cysts are present at birth, which are gradually replaced by CT cysts as the disease progresses. Cyst expansion and kidney fibrosis result in death due to renal failure at 24-28 days. Heterozygotes show no phenotypic abnormalities and are identified by their ability to breed affected offspring. Unaffected (noncystic) littermates of cystic bpk mice are either wild-type or heterozygous at the bpk locus.
(§1) Cystic bpk mice and phenotypically normal littermates were injected with a dose of 100 mg/kg/dose of 1-acetyl-4-(4-but-2-ynyloxy-benzenesulfonyl)-2,3,4,5-tetrahydro-1 h-[1,4]benzodiazepine-3-carboxylic acid hydroxyamide given intraperitoneally once daily, in a vehicle containing 0.5% methocellulose (Fluka Biochemica, Ronkonkoma, N.Y.) and 2% Tween 80 (J T Baker, Phillipsburg, N.J.), beginning at postnatal day 7. Age-matched untreated cystic bpk mice and their noncystic littermates served as controls. At day 21, mice were sacrificed. Blood was obtained by orbital puncture prior to sacrifice. Kidney weight and body weight for treated and untreated cystic and noncystic mice were measured at sacrifice. Blood urea nitrogen (BUN) was assessed using a calorimetric assay. Serum creatinine was assessed using standard techniques in the hospital laboratory. Differences in clinical and laboratory parameters between treated and untreated cystic and noncystic mice were analyzed by two-tailed Student's t-test.
Kidneys were fixed in 4% paraformaldehyde and embedded in plastic. Segment-specific localization of cysts was assessed using lectins specific to proximal tubule (Lotus tetragonolobus, LTA), and collecting tubule (Dolichos biflorus agglutinin, DBA). Serial LTA and DBA stained sections were examined by light microscopy and assessed for severity of cystic dilatations in PTs and CTs, expressed on a scale of 0 to 5 using a modified cystic index: • 0=No cysts • 1=≦0.11 mm • 2=0.12-0.19 mm • 3=0.20-0.27 mm • 4=0.28-0.35 mm • 5=≧0.36 mm The total number of CT (DBA+/LTA−) cysts and PT (LTA+/DBA−) cysts within a section were counted and expressed as a ratio.
Mice were treated from day 7 of life until day 21, then sacrificed. […] The results are listed below in Tables 1, 2, and 3.

[3] = system: noncystic littermates; experiment: Treatment of noncystic (phenotypically normal) littermates of bpk mice; type: in vivo; details: P-21 noncystic mice
Experimental: as §1

[4] = target: MMP-9 (Homo sapiens, UniProt P14780); experiment: MMP activity (IC 50), MMP-9; type: biochemical
[5] = target: MMP-13 (Homo sapiens, UniProt P45452); experiment: MMP activity (IC 50), MMP-13; type: biochemical
[6] = target: T1, MMP-1 (Homo sapiens, UniProt P03956); experiment: MMP activity (IC 50), MMP-1; type: biochemical
T1 sequence (P03956 100-469): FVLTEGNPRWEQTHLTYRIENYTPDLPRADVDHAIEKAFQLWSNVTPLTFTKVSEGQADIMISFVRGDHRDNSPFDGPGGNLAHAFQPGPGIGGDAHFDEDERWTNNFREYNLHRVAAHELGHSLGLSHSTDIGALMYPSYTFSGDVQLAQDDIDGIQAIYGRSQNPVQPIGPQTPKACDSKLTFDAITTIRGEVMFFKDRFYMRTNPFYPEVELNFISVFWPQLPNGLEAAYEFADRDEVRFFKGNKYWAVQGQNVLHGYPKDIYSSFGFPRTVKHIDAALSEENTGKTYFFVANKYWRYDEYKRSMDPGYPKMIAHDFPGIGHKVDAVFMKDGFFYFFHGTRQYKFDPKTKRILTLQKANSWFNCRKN

[7] = target: TACE (Homo sapiens, UniProt P78536); experiment: TACE activity (IC 50); type: biochemical
[8] = P-21 cystic bpk mice, 100 mg/kg/dose intraperitoneally once daily from postnatal day 7, sacrifice day 21
[9] = 100 mg/kg/dose intraperitoneally once daily from postnatal day 7, sacrifice day 21

MMP-9, sequence (P14780 94-707): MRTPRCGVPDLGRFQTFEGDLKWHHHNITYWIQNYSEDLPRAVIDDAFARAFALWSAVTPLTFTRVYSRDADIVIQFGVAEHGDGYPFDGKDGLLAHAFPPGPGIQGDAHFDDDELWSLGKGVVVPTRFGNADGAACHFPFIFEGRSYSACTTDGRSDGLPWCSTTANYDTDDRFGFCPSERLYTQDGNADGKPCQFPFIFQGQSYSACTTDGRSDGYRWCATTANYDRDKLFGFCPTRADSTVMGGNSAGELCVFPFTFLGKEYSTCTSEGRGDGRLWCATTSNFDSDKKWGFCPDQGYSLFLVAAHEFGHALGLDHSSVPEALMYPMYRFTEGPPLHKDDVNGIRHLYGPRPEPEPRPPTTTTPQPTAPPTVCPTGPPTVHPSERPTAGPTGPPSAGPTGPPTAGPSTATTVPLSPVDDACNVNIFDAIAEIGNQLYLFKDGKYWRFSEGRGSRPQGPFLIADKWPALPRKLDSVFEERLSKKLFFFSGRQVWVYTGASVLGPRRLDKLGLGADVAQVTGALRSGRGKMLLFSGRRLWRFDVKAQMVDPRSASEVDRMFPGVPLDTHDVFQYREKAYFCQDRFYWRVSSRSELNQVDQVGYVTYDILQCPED
TACE, sequence (P78536 215-824): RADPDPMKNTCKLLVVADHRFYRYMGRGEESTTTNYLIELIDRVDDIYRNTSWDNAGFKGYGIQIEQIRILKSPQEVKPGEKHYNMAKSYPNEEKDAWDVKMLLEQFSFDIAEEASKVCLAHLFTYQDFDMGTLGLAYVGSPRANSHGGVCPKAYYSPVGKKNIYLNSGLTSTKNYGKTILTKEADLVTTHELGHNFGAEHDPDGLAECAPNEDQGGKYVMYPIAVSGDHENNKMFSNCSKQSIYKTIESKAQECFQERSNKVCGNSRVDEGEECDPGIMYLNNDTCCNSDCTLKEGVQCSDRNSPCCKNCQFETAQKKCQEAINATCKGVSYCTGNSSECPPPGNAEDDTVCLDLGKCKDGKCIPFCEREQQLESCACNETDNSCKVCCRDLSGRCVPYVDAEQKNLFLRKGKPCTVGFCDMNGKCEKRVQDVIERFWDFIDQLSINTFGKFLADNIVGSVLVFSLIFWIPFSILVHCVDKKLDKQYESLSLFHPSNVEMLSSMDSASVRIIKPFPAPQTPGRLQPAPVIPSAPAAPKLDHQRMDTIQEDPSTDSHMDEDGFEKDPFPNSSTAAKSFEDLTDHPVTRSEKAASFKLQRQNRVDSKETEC

Compound: O=C(NO)C1(S(=O)(=O)c2ccc(Oc3ccc(Cl)cc3)cc2)CCN(Cc2ccccc2)CC1 [B, 1-Benzyl-4-[4-(4-chloro-phenoxy)-benzenesulfonyl]-piperidine-4-carboxylic acid hydroxamide]
- Cystic Kidney Weight to Body Weight [1]: 15.3 +/− 1.7%

Compound: CC#CCOc1ccc(S(=O)(=O)N2Cc3ccccc3N(C(C)=O)CC2C(=O)NO)cc1 (stereo not drawn) [A, 1-Acetyl-4-(4-But-2-ynyloxy-Benzenesulfonyl)-2,3,4,5-Tetrahydro-1H-[1,4]Benzodiazepine-3-Carboxylic Acid Hydroxyamide]
- BUN ([2]; P-21 cystic bpk mice, 100 mg/kg/dose intraperitoneally once daily from postnatal day 7, blood at day 21): 33 +/− 4^b** mg/dl
- Body Weight [2, 8]: 8.2 +/− 1.3 grams
- Kidney Weight [2, 8]: 0.93 +/− 0.2** grams
- Kidney Weight to Body Weight [2, 8]: 11.2 +/− 1.3** percent
- CT Cystic Index (graded 1–5) ([2]; collecting tubule cysts, DBA stained kidney sections, cystic mice, 100 mg/kg/dose IP once daily day 7 to 21): 3.2 +/− 0.4**
- CT Cyst Size Range ([2]; collecting tubule cysts, cystic mice, 100 mg/kg/dose IP once daily day 7 to 21): 0.012–0.29 mm
- Cystic Kidney Weight to Body Weight ([2]; cystic bpk mice, A 100 mg/kg/dose IP once daily day 7 to 21): 11.2 +/− 1.3%
- PT Cystic Index (graded 1–5) ([2]; proximal tubule cysts, LTA stained kidney sections, cystic mice, 100 mg/kg/dose IP once daily day 7 to 21): 1.8 +/− 0.4
- PT Cyst Size Range ([2]; proximal tubule cysts, cystic mice, 100 mg/kg/dose IP once daily day 7 to 21): 0.012–0.17 mm
- Creatinine ([2]; serum, P-21 cystic bpk mice, 100 mg/kg/dose intraperitoneally once daily from postnatal day 7, blood at day 21): 0.18 +/− 0.05^b mg/dl
- Cystic CT/PT Ratio ([2]; total number of CT cysts to PT cysts within a section, cystic mice, 100 mg/kg/dose IP once daily day 7 to 21): 1.2**
- BUN ([3]; 100 mg/kg/dose intraperitoneally once daily from postnatal day 7, blood at day 21): 17 +/− 4^d mg/dl
- Body Weight [3, 9]: 8.5 +/− 1.0 grams
- Kidney Weight [3, 9]: 0.13 +/− 0.01 grams
- Kidney Weight to Body Weight [3, 9]: 1.5 +/− 0.1%
- Creatinine ([3]; serum, 100 mg/kg/dose intraperitoneally once daily from postnatal day 7, blood at day 21): 0.15 +/− 0.05^e mg/dl
- IC50 [4]: 12 nM
- IC50 [5]: 3 nM
- IC50 [6]: 6.6 nM
- IC50 [7]: 8.4 nM
